Experimental data reported in patent EP4585599A1, “NITROGEN-CONTAINING FUSED RING COMPOUND, INTERMEDIATE THEREOF, PREPARATION METHOD THEREFOR AND USE THEREOF” (Hangzhou Synrx Therapeutics Biomedical Technology Co., Ltd., priority 2022, dated 2024).
Where two headings read alike, the source gives them in different places.

Columns and labels:
[1] = cells; settings: Homo sapiens, DLD-1, 240 h
[2] = molecular target: T1, helicase domain of the Pol θ protein (Homo sapiens, UniProt O75417); assay: Biochemical Activity Assay (ADP Glo Assay) of Pol θ inhibitor, ATPase activity
T1 construct: The helicase domain of the Pol θ protein was purified from insect protein expression system; made in house; host or cells: insect protein expression system

[3] = read-out: Cell viability assay IC50 (nM), CTG assay, CellTiter Glo, read on Day 10, cell line not given
[4] = ADP-Glo assay, ATPase activity of Pol θ helicase domain, ssDNA substrate, read-out: Biochemical assay IC50
[5] = read-out: Cell viability assay IC50 (nM), CTG on Day 10, cell line not given (method: DLD1 and DLD1^-/- cells)
[6] = ADP-Glo, ssDNA substrate, 60 min at room temperature, read-out: Biochemical assay IC50
[7] = read-out: Cell viability assay IC50 (nM)

T1 sequence (O75417 102-554 limits assumed): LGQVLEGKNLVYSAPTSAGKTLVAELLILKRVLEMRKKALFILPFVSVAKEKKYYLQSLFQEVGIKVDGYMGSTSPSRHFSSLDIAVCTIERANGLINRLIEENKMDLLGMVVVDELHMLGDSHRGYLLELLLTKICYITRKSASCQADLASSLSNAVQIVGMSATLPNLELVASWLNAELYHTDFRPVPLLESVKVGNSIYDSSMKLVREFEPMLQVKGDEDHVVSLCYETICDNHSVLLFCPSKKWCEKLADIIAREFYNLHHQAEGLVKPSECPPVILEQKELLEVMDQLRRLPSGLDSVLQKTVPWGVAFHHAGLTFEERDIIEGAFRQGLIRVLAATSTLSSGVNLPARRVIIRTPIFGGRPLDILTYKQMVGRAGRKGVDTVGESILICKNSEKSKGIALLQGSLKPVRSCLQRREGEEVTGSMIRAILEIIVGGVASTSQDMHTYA

Compound | IC50 [1, 3] [nM] | IC50 [2, 4] [nM] | IC50 [1, 5] [nM] | IC50 [2, 6] [nM] | IC50 [1, 7] [nM] | IC50 ([2]; Biochemical assay IC50 (nM)) [nM]
COc1cnc(Cl)cc1-c1cc(C)ncc1C(=O)Nc1nc2ccc(N3CCOCC3=O)nc2s1 [Example 202] | 38.8 | 6.11 | – | – | – | –
COc1cnc(Cl)cc1-c1cc(C)ncc1C(=O)Nc1nc2ncc(C3=CCC(N)CC3)cc2s1 (centres unmarked) [Example 21] | 76.4 | 3.48 | < 100 | < 50 | – | –
COc1cnc(Cl)cc1-c1cc(C)ncc1C(=O)Nc1nc2ccc(-c3ccncc3C)nc2s1 [Example 83] | 29.3 | 3.21 | < 100 | < 50 | – | –
COc1cnc(Cl)cc1-c1cc(C)ncc1C(=O)Nc1nc2c(=O)[nH]c(-c3c(C)cnn3C)cc2s1 [Example 179, 2'-chloro-N-(6-(1,4-dimethyl-1H-parazol-5-yl)-4-oxo-4,5-dihydrothiazolo[4,5-c]pyridin-2-yl)-5'-methoxy-6-methyl-[4,4'-bipyridine]-3-carboxamide] | – | – | – | – | 562 | 2.43
CCP(=O)(CC)c1ccc(-c2cnc3nc(NC(=O)c4cnc(C)cc4-c4cc(Cl)ncc4OC)sc3c2)cc1 [Example 186] | – | – | – | – | 1520 | 5.58
COc1cnc(Cl)c(F)c1-c1cc(C)ncc1C(=O)Nc1nc2ncc(N3CCC(O)CC3)cc2s1 [Example 127] | 15.8 | 3.52 | – | – | – | –
COc1cnc(Cl)c(F)c1-c1cc(C)ncc1C(=O)Nc1nc2ccc(C3CCC(O)CC3)cc2s1 (centres unmarked) [Example 30] | 19.2 | 1.62 | < 100 | < 50 | – | –
COc1cnc(Cl)cc1-c1cc(C)ncc1C(=O)Nc1nc2ccc(C3=CCC(O)CC3)nc2[nH]1 (centres unmarked) [Example 56, 2'-chloro-N-(5-(4-hydroxycyclohex-1-en-1-yl)-3H-imidazo[4,5-b]pyridin-2-yl)-5'-methox y-6-methyl-[4,4'-bipyridine]-3-carboxamide] | 9620 | 222 | > 1000 | 200 to 500 | – | –
COc1cnc(Cl)cc1-c1cc(C)ncc1C(=O)Nc1nc2cnc(-c3c(C)cnn3C)nc2s1 [Example 157] | 32.9 | 5.08 | – | – | – | –
COc1cnc(Cl)cc1-c1cc(C)ncc1C(=O)Nc1nc2ccc(N3CCC=CC3=O)nc2s1 [Example 138] | 26.1 | 7.58 | – | – | – | –
[2H]C([2H])([2H])Oc1cnc(Cl)cc1-c1cc(C)ncc1C(=O)Nc1nc2cnc(-c3c(C)cnn3C)cc2s1 [Example 156] | 5.62 | 2.75 | – | – | – | –
COc1cnc(Cl)cc1-c1cc(C)ncc1C(=O)Nc1nc2ccc(N3CCc4ccccc43)nc2s1 [Example 131] | 736 | 149 | – | – | – | –
COc1cnc(Cl)cc1-c1cc(C)ncc1C(=O)Nc1nc2ccc(-c3c(C)nnn3C)cc2s1 [Example 222, 2'-chloro-N-(6-(1,4-dimethyl-1H-1,2,3-triazol-5-yl)benzo[d]lthiazol-2-yl)-5'-methoxy-6-methyl-[4.4'-bipyridine]-3-carboxamide] | – | – | – | – | 9.62 | 4.36
COc1cnc(Cl)cc1-c1cc(C)ncc1C(=O)Nc1nc2cnc(-c3c(Cl)cnn3C)cc2s1 [Example 167] | 5.41 | 3.74 | – | – | – | –
COc1cnc(Cl)cc1-c1cc(C)ncc1C(=O)Nc1nc2ccc(N3CCC(CO)CC3)nc2s1 [Example 128] | 39.8 | 9.69 | – | – | – | –
COc1cnc(Cl)cc1-c1cc(C)ncc1C(=O)Nc1nc2ncc(N3CCC(O)C(C)C3)cc2s1 (centres unmarked) [Example 67] | 46.4 | 6.18 | < 100 | < 50 | – | –
COc1cnc(C(F)F)cc1-c1cc(C)ncc1C(=O)Nc1nc2ccc(-c3c(C)nnn3C)cc2s1 [Example 223] | 10 | 2.51 | – | – | – | –
COc1cnc(Cl)cc1-c1cc(C)ncc1C(=O)Nc1nc2ncc(N3CCC(C(C)(C)O)CC3)nc2s1 [Example 134] | 5.41 | 4.11 | – | – | – | –
COc1cnc(Cl)cc1-c1cc(C)ncc1C(=O)Nc1nc2ccc(-c3c(C)cnn3C)c(F)c2s1 [Example 151] | 3.98 | 8.57 | – | – | – | –
COc1cnc(Cl)c(F)c1-c1cc(C)ncc1C(=O)Nc1nc2cnc(N3CCC(O)CC3)nc2s1 [Example 200] | 7.07 | 6.51 | – | – | – | –
COc1cnc(Cl)cc1-c1cc(C)ncc1C(=O)Nc1nc2ccc(N3CCC(O)CC3)c(F)c2s1 [Example 104] | 5.62 | 1.56 | < 100 | < 50 | – | –
COc1cnc(Cl)cc1-c1cc(C)ncc1C(=O)Nc1nc2cnc(-c3c(C)nn(C)c3C(N)=O)cc2s1 [Example 152] | 17.2 | 3.02 | – | – | – | –
Cc1cc(-c2cc(Cl)ncc2OC(F)F)c(C(=O)Nc2nc3ccc(N4CCC(O)CC4)nc3s2)cn1 [Example 130] | 11 | 6.91 | – | – | – | –
COc1cnc(Cl)cc1-c1cc(C)ncc1C(=O)Nc1nc2ncc(N(C)CCC(C)O)cc2s1 (centres unmarked) [Example 117] | 799 | 7.28 | – | – | – | –

Compound | IC50 [1, 3] [nM] | IC50 [2, 4] [nM] | IC50 [1, 5] [nM] | IC50 [2, 6] [nM] | IC50 [1, 7] [nM] | IC50 ([2]; Biochemical assay IC50 (nM)) [nM]
COc1cnc(Cl)cc1-c1cc(C)ncc1C(=O)Nc1nc2cnc(C3=CCC(O)CC3)nc2s1 (centres unmarked) [Example 91, 2'-chloro-N-(5-(4-hydroxycyclohex-1-en-1-yl)thiazolo[5,4-d]pyrimidin-2-yl)-5'-methoxy-6-methyl-[4,4'-bipyridine]-3-carboxamide] | 11.7 | 1.88 | < 100 | < 50 | – | –
COc1cnc(Cl)cc1-c1cc(C)ncc1C(=O)Nc1nc2cnc(-c3nnc(C)o3)cc2s1 [Example 206] | 13.6 | 2.36 | – | – | – | –
COc1cnc(Cl)cc1-c1cc(C)ncc1C(=O)Nc1nc2cnc(-c3nnnn3C)cc2s1 [Example 208] | 141 | 36.3 | – | – | – | –
COc1cnc(Cl)cc1-c1cc(C)ncc1C(=O)Nc1nc2cnc(-c3c(C)nn(C)c3C#N)cc2s1 [Example 150] | 21.5 | 5.58 | – | – | – | –
COc1cnc(Cl)c(F)c1-c1cc(C)ncc1C(=O)Nc1nc2ncc(N3CCOCC3)cc2s1 [Example 49] | 54.1 | 7.58 | < 100 | < 50 | – | –
COc1cnc(Cl)cc1-c1cc(C)ncc1C(=O)Nc1nc2ncc(C3=CCOCC3)cc2s1 [Example 14] | 31.6 | 2.74 | < 100 | < 50 | – | –
COc1cnc(Cl)cc1-c1cc(C)ncc1C(=O)Nc1nc2cnc(N3CC[C@@H](O)C[C@H]3C)nc2s1 [Example 141] | 21.5 | 8.23 | – | – | – | –
COc1cnc(Cl)cc1-c1cc(C)ncc1C(=O)Nc1nc2cnc(-c3cncn3C)cc2s1 [Example 171] | 13.1 | 4.93 | – | – | – | –
COc1cnc(Cl)cc1-c1cc(C)ncc1C(=O)Nc1nc2ncc(S(C)(=O)=O)cc2s1 [Example 94, 2'-chloro-5'-methoxy-6-methyl-N-(6-(methylsulfonyl)thiazolo[4,5-b]pyridin-2-yl)-[4,4'-bipyridine]-3-carboxamide] | 631 | 6.98 | 500 to 1000 | < 50 | – | –
COc1cnc(Cl)cc1-c1cc(C)ncc1C(=O)Nc1nc2cnc(N3CCC(NS(C)(=O)=O)CC3)cc2s1 [Example 195] | – | – | – | – | 34.2 | 6.18
COc1cnc(Cl)cc1-c1cc(C)ncc1C(=O)Nc1nc2c(C#N)cc(N3CCC(O)CC3)cc2s1 [Example 120] | 14.2 | 5.93 | – | – | – | –
COc1cnc(Cl)cc1-c1cc(C)ncc1C(=O)Nc1nc2ncc(-n3ccccc3=O)cc2s1 [Example 25] | 138 | 3.94 | 100 to 500 | < 50 | – | –
COc1cnc(Cl)cc1-c1cc(C)ncc1C(=O)Nc1nc2c(C#N)cc(-c3c(C)cnn3C)cc2s1 [Example 166] | 68.1 | 25.1 | – | – | – | –
COc1cnc(Cl)cc1-c1cc(C)ncc1C(=O)Nc1nc2ncc(N3CC4(CC(O)C4)C3)nc2s1 [Example 133] | 26.1 | 6.92 | – | – | – | –
COc1cnc(Cl)c(F)c1-c1cc(C)ncc1C(=O)Nc1nc2cc(F)c(N3CCC(F)(F)CC3)nc2s1 [Example 143] | 43 | 23.6 | – | – | – | –
COc1cnc(Cl)cc1-c1cc(C)ncc1C(=O)Nc1nc2ncc(C3=CCC(O)CC3)cc2s1 (centres unmarked) [Example 3] | 13.6 | 2.51 | < 100 | < 50 | – | –
COc1cnc(Cl)cc1-c1cc(C)ncc1C(=O)Nc1nc2cc[nH]c2s1 [Example 90, 2'-chloro-5'-methoxy-6-methyl-N-(4H-pyrrolo[3,2-d]thiazol-2-yl)-[4,4'-bipyridine]-3-car boxamide] | – | – | > 1000 | > 500 | – | –
COc1cnc(Cl)cc1-c1cc(C)ncc1C(=O)Nc1nc2cnc(C3=CCC4(CC3)CN(C(C)=O)C4)cc2s1 [Example 185] | 35.9 | 8.94 | – | – | – | –
COc1cnc(Cl)cc1-c1cc(C)ncc1C(=O)Nc1nc2[nH]c(=O)c(-c3c(C)cnn3C)cc2s1 [Example 178, 2'-chloro-N-(6-(1,4-dimethyl-1H-parazol-5-yl)-5-oxo-4,5-dihydrothiazolo[4,5-b]pyridin-2-yl)-5'-methoxvy-6-methyl-[4,4'-bipyridine]-3-carboxamide] | – | – | – | – | 35.5 | 1.63
COC(=O)c1cc(-c2c(C)cnn2C)cc2sc(NC(=O)c3cnc(C)cc3-c3cc(Cl)ncc3OC)nc12 [Example 162] | 233 | 63.1 | – | – | – | –
COc1cnc(Cl)cc1-c1cc(C)ncc1C(=O)Nc1nc2ncc(N3CCN(S(C)(=O)=O)CC3)cc2s1 [Example 65] | 42.2 | 2.72 | < 100 | < 50 | – | –
COc1cnc(Cl)cc1-c1cc(C)ncc1C(=O)Nc1nc2ncc(N3CCC(NS(C)(=O)=O)CC3)cc2s1 [Example 68] | 1120 | 1.39 | > 1000 | < 50 | – | –
COc1cnc(Cl)cc1-c1cc(C)ncc1C(=O)Nc1nc2ccc(N3CC[C@H](O)C[C@H]3C)nc2s1 [Example 136] | 121 | 25.8 | – | – | – | –
